Each structure is given as a SMILES string.

The target in the test is Sodium-dependent dopamine transporter (Rattus norvegicus, UniProt P23977). Put plainly: Inhibition of [3H]3-beta-(p-fluorophenyl)tropane-2beta-carboxylic acid methyl ester [3H]7a binding to Dopamine transporter of rat striatal membranes. Format: cell membranes, Membrane.
Sodium-dependent dopamine transporter, sequence (P23977 whole entry): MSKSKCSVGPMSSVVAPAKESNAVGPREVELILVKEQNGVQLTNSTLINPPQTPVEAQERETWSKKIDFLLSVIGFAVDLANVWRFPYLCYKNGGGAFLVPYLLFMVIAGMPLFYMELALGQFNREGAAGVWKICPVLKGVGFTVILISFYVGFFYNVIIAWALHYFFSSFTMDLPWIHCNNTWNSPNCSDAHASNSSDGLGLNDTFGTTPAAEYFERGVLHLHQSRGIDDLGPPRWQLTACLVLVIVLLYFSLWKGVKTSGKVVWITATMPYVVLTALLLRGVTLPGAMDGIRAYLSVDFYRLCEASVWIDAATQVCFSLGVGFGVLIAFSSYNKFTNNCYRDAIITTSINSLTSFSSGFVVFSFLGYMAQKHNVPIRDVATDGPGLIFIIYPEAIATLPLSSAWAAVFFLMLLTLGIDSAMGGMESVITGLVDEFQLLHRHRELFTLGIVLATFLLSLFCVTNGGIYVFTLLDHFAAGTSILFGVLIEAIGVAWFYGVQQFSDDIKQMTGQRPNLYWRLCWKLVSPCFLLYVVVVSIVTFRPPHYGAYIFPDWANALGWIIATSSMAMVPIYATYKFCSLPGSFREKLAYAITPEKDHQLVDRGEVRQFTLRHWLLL
A word on the IC50: it is the concentration needed to halve the response being measured. Read a low IC50 as greater potency. As for `CN1[C@@H]2CC[C@H]1C[C@H](OC(=O)c1ccccc1)C2`, the IC50 came out at 21.2 µM.

In the case of `COC(=O)C1C(OC(=O)c2ccccc2)C[C@H]2CCC1N2C(C)=O` (some centres undefined), the IC50 turned out to be 3.37 µM.

For `COC(=O)C1C2CC[C@H](CC1OC(=O)c1ccccc1)N2` (some centres undefined), the IC50 amounted to 0.303 µM.

`COC(=O)C1C(OC(=O)c2ccccc2)C[C@H]2CCC1N2Cc1ccccc1` (some centres undefined) registered an IC50 of 0.668 µM. Compared with the last compound, the IC50 is about 2.2-fold higher.

On to `COC(=O)C1C(OC(=O)c2ccccc2)C[C@H]2CCC1[N+]2(C)C` (some centres undefined), for which the IC50 turned out to be 10.7 µM. Compared with the last compound, the IC50 is about 16-fold higher.

Regarding `CN1CC2CC1C[C@@H](OC(=O)c1ccccc1)C2` (stereo in doubt; 4c), the IC50 was 19.8 µM. This IC50 lies about 1.9-fold higher than the previous one.

Take `CN1CC2CC1C[C@@H](OC(=O)c1ccccc1)C2` (stereo in doubt; 4d): the IC50 is 4.95 µM.

The compound `CN1CC2CC(OC(=O)c3ccccc3)CC1C2` (stereo in doubt; 4d-(+)) displayed an IC50 of 2.94 µM.

The compound `CN1CC2CC(OC(=O)c3ccccc3)CC1C2` (stereo in doubt; 4d-(-)) gave an IC50 of 2.85 µM.

(Values after ChEMBL document CHEMBL1126012 (J Med Chem, 1992).)
